From US5573926A, “Process for obtaining aroma components and aromas from their precursors of a glycosidic nature, and aroma components and aromas thereby obtained” (Gist-brocades, N.V., priority 1989, dated 1996)

Assays:
α-arabinosidase [1] = assay: Enzymatic hydrolysis of the muscat glycosidic extract by α-arabinosidase (GC); assay type: biochemical; settings: for GC peak of the glycosidic extract after incubation with α-arabinosidase / Terpene monoglucosides liberated by α-arabinosidase from a glycosidic extract: 0.15 nkat, 40° C., 16 h; for Compounds appearing after action of α-arabinosidase: HPLC-collected peak, appears together with arabinose; for % of monoglucosides (liberated by the two enzymes together): sum of α-arabinosidase and α-rhamnosidase
Experimental: (§1) 40 μl of glycosidic extract and 60 μl of a solution of Glc-pNP (internal standard) at a concentration of 50 mg/1 in ethyl acetate are introduced into a suitable flask. The mixture is taken to dryness at 40° C. with a stream of nitrogen. 40 μl of the silylating reagent (Tri-sil, Pierce, Rockford, Ill., U.S.A.) are then introduced; the flask is sealed and maintained at 40° C. for 20 minutes. After rapid cooling, the silylated sample is then ready for analysis by GC.
(§2) The apparatus used consists of a Series 30C gas chromatograph, an "on-column" injector (injected volume 0.5 μl) and a flame ionization detector (Girdel, France). A thin film (0.20 μm) of an OV-1 (Girdel) apolar silicone phase is grafted onto the inner wall of the capillary column ([…].). The oven temperature is programmed from 125 to 305° C. at the rate of 5° C./minute, then maintained at 305° C. for 15 minutes. Finally, the detector temperature is set at 300° C. and hydrogen is used as the carrier gas at a pressure of 120 kPa.
(§3) The experimental protocols for the enzymatic hydrolysis on the glycosidic extract are collated in Table 3. […]

[2] = tested on: α-arabinosidase and then β-glucosidase; assay: Sequential hydrolysis by α-arabinosidase and then β-glucosidase (GC of sugars, glucosides, terpenols); assay type: biochemical; settings: HPLC-collected peak; appears together with glucose
Experimental: The monoterpene alcohols studied here are sufficiently volatile to be chromatographed as they are. To the pentane extract containing them, the internal standard, 4-nonanol (for synthesis, Merck, Darmstadt, FRG) is added in the proportion of 1 μl of a solution at a concentration of 2.89 mg/ml in pentane per 50 μl of medium. The mixture is then dried over sodium sulphate, filtered through glass wool and then concentrated to a volume in the region of 100 μl For this purpose, the pentane is first removed using a conventional still, and then a Dufton type column of a size suited to the volume remaining to be concentrated.
The constituents of the concentrated extract are separated using a capillary column (25 m×0.32 mm I.D.) containing a CP wax 52 CB (Chrompack, Middelburg, Netherlands) polar phase. The grafted polyethylene glycol film was selected thick (1.28 μm) in order to permit the injection of large sample volumes, up to 4 μl. […]
Furthermore, each fraction was subjected to the sequential action of α-arabinosidase and then β-glucosidase. At the end of each stage and according to the procedures described, the incubated medium was analysed by GC in order to test for sugars and glucosides on the one hand, and for terpenols on the other hand. […]

β-apiosidase = assay: Enzymatic hydrolysis of Api-Glc-Ger by β-apiosidase present in Klerzyme 200 (TLC); assay type: biochemical
Experimental: The β-apiosidase present in a commercial enzyme preparation (Klerzyme 200, Gist-brocades, France) was used without further purification.
(§4) Thin-layer adsorption chromatography was carried out on pieces of aluminium foil covered with a thin layer (0.2 mm) of silica gel (5553 Silica gel 60 without a fluorescence indicator, Merck). An ethyl acetate/isopropanol/water (65:30:10 v/v/v) mixture was used as a migration solvent.
(§5) The sugars and the glycosides are visualized by means of the following mixture, prepared immediately before use: 0.2% naphthoresorcinol in ethanol/concentrated sulphuric acid (19:1 v/v). The application of this visualizing agent is followed by drying the plates in the oven (105° C.) for 15 minutes. Apart from their migration distance, the various compounds are also distinguished by their colour. The glycosides are purple-red, the arabinosides are bluish, the apiosides are green, rhamnose greenish pink, arabinose blue, apiose green and glucose pink.
(§6) In all the tests relating to the enzymatic hydrolysis of the synthetic substrates, the same glycosidase activity (0.15 nkat) is used for each of the enzymes (α-arabinosidase, apiosidase, α-rhamnosidase, β-glucosidase).

α-arabinosidase [3] = assay: Enzymatic hydrolysis of synthetic substrates by α-arabinosidase (TLC); assay type: biochemical; settings: 0.15 nkat, 40° C., 90 min, pH 4.2
Experimental: as §4, §5, §6
(§7) The hydrolysis and analysis protocols are given in plan form (Table 2). […]

[4] = Enzymatic hydrolysis of a glycosidic extract in natural media (must, dry wine) by Hemicellulase REG2 + Naringinase; assay type: biochemical; settings: 25° C., 86 hours
Experimental: The enzymatic hydrolysis of a glycosidic extract incorporated, on the one hand into a natural medium (must or dry wine), and on the other hand into a reference medium (buffer), by the action of commercial preparations containing the requisite three glycosidases, was studied.
A juice and a wine of a vine variety not containing terpenols and terpene glycosides, but enriched beforehand with a known amount of glycosidic extract of muscat, are treated with commercial enzyme preparations. The media, as well as controls, are incubated at 25° C. for 86 hours (see the experimental protocol plan below). They are then passed through a column of Amberlite XAD-2 according to the protocol applied for the production of the glycosidic extract, and the terpenols are assayed by GC.

α-rhamnosidase [5] = assay: Enzymatic hydrolysis of the muscat glycosidic extract by α-rhamnosidase (GC); assay type: biochemical; settings: 0.15 nkat, 40° C., 16 h
Experimental: as §1, §2, §3

β-glucosidase [6] = assay: Second stage: consecutive action of β-glucosidase on the pre-incubated glycosidic extract (GC); assay type: biochemical, sweet almond; settings: 0.15 nkat, 40°, 16 h
Experimental: as §1, §2, §3

β-glucosidase [7] = assay: Enzymatic hydrolysis of synthetic substrates by β-glucosidase (TLC, pNP liberated, GC); assay type: biochemical, sweet almond; settings: media previously incubated with α-arabinosidase or α-rhamnosidase; 0.15 nkat, 40° C., 90 min
Experimental: as §5, with “An ethyl acetate/isopropanol/water (65:30:10 v/v/v) mixture was used as a migration solvent. The sugars” for “The sugars”, “glucose pink. […] The hydrolysis and analysis protocols are given in plan form (Table 2). […]” for “glucose pink.”

[8] = target: T1, β-glucosidase (originating from the yeast Candida wickerhamii CBS 2928) (Nakazawaea wickerhamii, UniProt Q12601); assay: Hydrolysis of monoglucosides in naturally sweet wines by Candida wickerhamii β-glucosidase; assay type: biochemical
T1 sequence (Q12601 20-609): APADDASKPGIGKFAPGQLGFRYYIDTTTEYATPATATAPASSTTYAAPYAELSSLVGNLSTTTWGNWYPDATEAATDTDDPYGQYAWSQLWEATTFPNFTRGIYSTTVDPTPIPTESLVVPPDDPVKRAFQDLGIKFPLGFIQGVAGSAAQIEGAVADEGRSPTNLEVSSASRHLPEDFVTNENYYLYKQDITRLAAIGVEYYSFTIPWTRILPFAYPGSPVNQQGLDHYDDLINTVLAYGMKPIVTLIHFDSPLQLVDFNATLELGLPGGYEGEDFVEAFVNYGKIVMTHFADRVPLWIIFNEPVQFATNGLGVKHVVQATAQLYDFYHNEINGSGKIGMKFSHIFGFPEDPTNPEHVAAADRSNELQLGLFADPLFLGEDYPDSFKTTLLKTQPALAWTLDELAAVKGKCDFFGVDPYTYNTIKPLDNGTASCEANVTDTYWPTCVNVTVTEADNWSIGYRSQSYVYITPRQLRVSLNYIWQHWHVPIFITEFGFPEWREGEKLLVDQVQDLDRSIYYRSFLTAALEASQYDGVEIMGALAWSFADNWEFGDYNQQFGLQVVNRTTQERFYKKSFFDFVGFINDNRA

α-rhamnosidase [9] = assay: Enzymatic hydrolysis of synthetic substrates by α-rhamnosidase (TLC); assay type: biochemical; settings: 0.15 nkat, 40° C., 90 min, pH 4.2
Experimental: as §4, §5, §6, §7

[10] = tested on: β-glucosidase (originating from Aspergillus niger); assay: Inhibition of β-glucosidase activity by glucose in must and sweet wine; assay type: biochemical

CC(C)=CCC/C(C)=C/CO[C@@H]1O[C@H](CO[C@@H]2O[C@@H](CO)[C@H](O)[C@H]2O)[C@@H](O)[C@H](O)[C@H]1O (single isomer, unassigned) [Ara-Glc-Ger, Geranyl 6-O-(α-L-arabinofuranosyl)-β-D-glucopyranoside]
GC peak of the glycosidic extract after incubation with α-arabinosidase (α-arabinosidase [1]): disappear completely
Compounds appearing after action of α-arabinosidase (α-arabinosidase [1]): Glc--Ger
Compounds appearing after action of α-arabinosidase and then β-glucosidase [2]: geraniol

CC(C)=CCC/C(C)=C/CO[C@@H]1O[C@H](CO[C@@H]2OC[C@](O)(CO)[C@H]2O)[C@@H](O)[C@H](O)[C@H]1O [Api-Glc-Ger, geranyl β-D-apiofuranosyl-(1→6)-β-D-glucopyranoside]
hydrolysis by β-apiosidase present in Klerzyme 200 (TLC) (β-apiosidase): disappearance of the substrate and the appearance of apiose and glucose

CC(C)=CCC/C(C)=C\CO[C@@H]1O[C@H](CO[C@@H]2O[C@@H](CO)[C@H](O)[C@H]2O)[C@@H](O)[C@H](O)[C@H]1O [Ara-Glc-Ner, neryl a-L-arabinofuranosyl-(1→6)-β-D-glucopyranoside]
GC peak of the glycosidic extract after incubation with α-arabinosidase (α-arabinosidase [1]): disappear completely
Compounds appearing after action of α-arabinosidase (α-arabinosidase [1]): Glc--Ner
Compounds appearing after action of α-arabinosidase and then β-glucosidase [2]: nerol

O=[N+]([O-])c1ccc(O[C@@H]2O[C@H](CO[C@@H]3O[C@@H](CO)[C@H](O)[C@H]3O)[C@@H](O)[C@H](O)[C@H]2O)cc1 [Ara-Glc-pNP, p-Nitrophenyl 6-O-(α-L-arabinofuranosyl)-β-D-glucopyranoside]
hydrolysis by α-arabinosidase (TLC) (α-arabinosidase [3]): disappearance of this substrate and the appearance of arabinose and Glc-pNP

OCc1ccccc1 [Benzyl alcohol]
Compounds liberated relative to the reference medium ([4]; MUST (pH 3.4, sugars 180 g/l)): 46%
Compounds liberated relative to the reference medium ([4]; WINE (dry white, pH 3.1)): 50%

CC(C)=CCC/C(C)=C/CO[C@@H]1O[C@H](CO)[C@@H](O)[C@H](O)[C@H]1O [Glc-Ger, geranyl β-D-glucopyranoside]
Terpene monoglucosides liberated by α-rhamnosidase from a glycosidic extract (α-rhamnosidase [5]): 9%
Terpene monoglucosides liberated by α-arabinosidase from a glycosidic extract (α-arabinosidase [1]): 39%
% of monoglucosides (liberated by the two enzymes together) (α-arabinosidase [1]): 48%
hydrolysis by consecutive action of β-glucosidase (second stage, GC) (β-glucosidase [6]): disappearance
consecutive action of β-glucosidase (second stage, TLC) (β-glucosidase [7]): disappearance of Glc-Ger and Glc-pNP and the appearance of glucose
hydrolyzed by Candida wickerhamii β-glucosidase ([8]; pH 3.6): 45%
hydrolyzed by Candida wickerhamii β-glucosidase ([8]; pH 4.0): two thirds

CC(C)=CCC/C(C)=C\CO[C@@H]1O[C@H](CO)[C@@H](O)[C@H](O)[C@H]1O [Glc-Ner, neryl β-D-glucopyranoside]
Terpene monoglucosides liberated by α-rhamnosidase from a glycosidic extract (α-rhamnosidase [5]): 5%
Terpene monoglucosides liberated by α-arabinosidase from a glycosidic extract (α-arabinosidase [1]): 28%
% of monoglucosides (liberated by the two enzymes together) (α-arabinosidase [1]): 33%
hydrolysis by consecutive action of β-glucosidase (second stage, GC) (β-glucosidase [6]): disappearance
hydrolyzed by Candida wickerhamii β-glucosidase ([8]; pH 3.6): 19%
hydrolyzed by Candida wickerhamii β-glucosidase ([8]; pH 4.0): two thirds

O=[N+]([O-])c1ccc(O[C@@H]2O[C@H](CO)[C@@H](O)[C@H](O)[C@H]2O)cc1 [Glc-pNP, p-nitrophenyl β-D-glucopyranoside, reference compound]
consecutive action of β-glucosidase (second stage, TLC) (β-glucosidase [7]): disappearance of Glc-Ger and Glc-pNP and the appearance of glucose

C=CC(C)(O)CCC=C(C)C (stereo not shown) [Linalol]
Compounds liberated relative to the reference medium ([4]; MUST (pH 3.4, sugars 180 g/l)): 9%
Compounds liberated relative to the reference medium ([4]; WINE (dry white, pH 3.1)): 14%

CC(C)=CCC/C(C)=C/CO[C@@H]1O[C@H](CO[C@@H]2O[C@@H](C)[C@H](O)[C@@H](O)[C@H]2O)[C@@H](O)[C@H](O)[C@H]1O [Rha-Glc-Ger, Geranyl 6-O-(α-L-rhamnopyranosyl)-β-D-glucopyranoside]
GC peak of the glycosidic extract after the action of α-rhamnosidase (α-rhamnosidase [5]): decreases
hydrolysis by α-rhamnosidase (TLC) (α-rhamnosidase [9]): disappearance of these substrates

C[C@@H]1O[C@@H](OC[C@H]2O[C@@H](Oc3ccc([N+](=O)[O-])cc3)[C@H](O)[C@@H](O)[C@@H]2O)[C@H](O)[C@H](O)[C@H]1O [Rha-Glc-pNP]
hydrolysis by α-rhamnosidase (TLC) (α-rhamnosidase [9]): disappearance of these substrates

OC[C@H]1OC(O)[C@H](O)[C@@H](O)[C@@H]1O (stereo partly shown) [glucose]
effect on β-glucosidase activity ([10]; glucose 30 g/l in naturally sweet wines): inhibiting β-glucosidase
effect on β-glucosidase activity ([10]; glucose present in large amounts in the must): inhibition of the β-glucosidase activity
